Measurements published in patent US20070203215A1, “Methods & Compositions For Enhancing Pharmaceutical Treatments” (Taiji Biomedical, Inc., priority 1999, published 2007).
pEC50, pIC50: −log10 of the molar value. Where two headings read alike, the source gives them in different places.

How the values were obtained:
MDA/LCC6^MDR1 = assay: Reversal of MDR in P-gp-expressing cell line; type: cell-based, human; settings: for pEC50: Homo sapiens, MDA/LCC6^MDR1 breast
Method: (§1) Cell proliferation IC50s and MDR reversal EC50s were determined from 3-day dose-response curves carried out in triplicate in 96-well plates essentially as described by Monks et al. (J. Natl. Cancer Inst., 83:757-66, 1991). Cells were plated in standard growth medium at 2.5 or 5.0×10^4 per well (CCRF-CEM and CEM/VLB1000 respectively) or 5×10^3 per well (all other cell lines) in a final volume of 100 μl. After a 2 h incubation for non-adherent cells and overnight incubation for adherent cells, the initial cell density was determined by fluorescence readout of Alamar Blue metabolism. The compound of Formula 2, cytotoxic agents, or compound vehicles were added to duplicate plates and the incubation was continued for an additional 72 h. Final cell density was determined with Alamar Blue. In some experiments, a standard endpoint assay was used without analysis of initial cell density with Alamar Blue. Similar results were obtained with the two assays. EC50s were derived by nonlinear regression analysis assuming a sigmoidal dose-response using GraphPad Prism Software (San Diego, Calif.). Proliferation assays capable of measuring both cytostatic and cytotoxic responses were carried out as described herein with 15 non-transformed and transformed cell lines, including primary fibroblasts, non-transformed smooth muscle, leukemia, breast, colon, ovarian and uterine carcinoma cells (±P-gp expression). Although the compound of Formula 2 reversed P-gp-mediated MDR in the low nanomolar concentration range, the compound was non-cytotoxic by itself at doses up to 100 μM in all cell lines. […] IC50s for non-specific cytotoxicity were similar in matched cell lines plus and minus P-gp expression. […] If it were, some consistent degree of resistance would be expected in P-gp expressing cells.

tumor-bearing mice = settings: 20 mg/kg paclitaxel with the compound of Formula 2
[1] = test system: P-gp-expressing Cell Lines; assay: Modulation of P-gp-mediated drug resistance in vitro (panel statements); type: cell-based, human
Method: (§2) The compound of Formula 2 was able to reverse resistance to all classes of P-gp substrates in a wide variety of tumor cell types with EC50s in the low nM range (Table 2). Similar results were obtained with etoposide in several models. Complete reversal of MDR was typically seen with Formula 2 doses between 0.25 and 1.0 μM. Examples with cells expressing extremely high levels of P-gp as a result of drug selection (CEM/VLB1000), moderate levels of P-gp from gene transduction (MDA/LCC6 ^MDR1), and low (intrinsic) levels of P-gp (HCT-15) are illustrated in Table 2. The compound of Formula 2 had no effect on doxorubicin or paclitaxel IC50s in non-P-gp-expressing CCRF-CEM and MDA/LCC6 cells, respectively (FIG. 1, for MDA/LCC6 cells).
(§3) Cell proliferation IC50s and MDR reversal EC50s were determined from 3-day dose-response curves carried out in triplicate in 96-well plates essentially as described by Monks et al. (J. Natl. Cancer Inst., 83:757-66, 1991). Cells were plated in standard growth medium at 2.5 or 5.0×10^4 per well (CCRF-CEM and CEM/VLB1000 respectively) or 5×10^3 per well (all other cell lines) in a final volume of 100 μl. After a 2 h incubation for non-adherent cells and overnight incubation for adherent cells, the initial cell density was determined by fluorescence readout of Alamar Blue metabolism. […] Final cell density was determined with Alamar Blue. […]

MDA/LCC6 cells = assay: Effect on paclitaxel IC50 in non-P-gp-expressing cells; type: cell-based, human; settings: breast carcinoma cells that do not express P-gp, FIG. 1
Method: as §2, §3

CCD-986SK = assay: Cell proliferation assay; type: cell-based; settings: Homo sapiens; Primary fibroblast CCD-986SK; read-out: Formula 2 compound IC50 (inhibition of growth)
Method: as §1

MCF-7 = assay: Cell proliferation assay; type: cell-based; settings: Homo sapiens, MCF7; Breast carcinoma MCF-7, P-gp Neg; read-out: Formula 2 compound IC50 (inhibition of growth)
Method: as §1

Cell proliferation assay = type: cell-based; settings: human, MDA/LCC6^MDR1 breast carcinoma cells (P-gp positive); Breast carcinoma MDA/LCC6^MDR1, P-gp Pos; read-out: Formula 2 compound IC50 (inhibition of growth)
Method: as §1

MES-SA = assay: Cell proliferation assay; type: cell-based; settings: Homo sapiens; Uterine carcinoma MES-SA, P-gp Neg; read-out: Formula 2 compound IC50 (inhibition of growth)
Method: as §1

HCT-15 = assay: Cell proliferation assay; type: cell-based; settings: Homo sapiens; Colorectal carcinoma HCT-15, P-gp Pos; read-out: Formula 2 compound IC50 (inhibition of growth)
Method: as §1

CEM/VLB1000 = assay: Cell proliferation assay; type: cell-based; settings: Homo sapiens; Lymphoma CEM/VLB1000, P-gp Pos; read-out: Formula 2 compound IC50 (inhibition of growth)
Method: as §1

SKOV3 = assay: Cell proliferation assay; type: cell-based; settings: Homo sapiens, SK-OV-3; Ovarian carcinoma SKOV3, P-gp Neg; read-out: Formula 2 compound IC50 (inhibition of growth)
Method: as §1

MDA/LCC6 = assay: Cell proliferation assay; type: cell-based; settings: Homo sapiens, LCC-6; Breast carcinoma MDA/LCC6, P-gp Neg; read-out: Formula 2 compound IC50 (inhibition of growth)
Method: as §1

SW620 = assay: Cell proliferation assay; type: cell-based; settings: Homo sapiens, SW-620; Colorectal carcinoma SW620, P-gp Neg; read-out: Formula 2 compound IC50 (inhibition of growth)
Method: as §1

SW480 = assay: Cell proliferation assay; type: cell-based; settings: Homo sapiens; Colorectal carcinoma SW480, P-gp Pos; read-out: Formula 2 compound IC50 (inhibition of growth)
Method: as §1

SK/VLB1000 = assay: Cell proliferation assay; type: cell-based; settings: Homo sapiens; Ovarian carcinoma SK/VLB1000, P-gp Pos; read-out: Formula 2 compound IC50 (inhibition of growth)
Method: as §1

CEM = assay: Cell proliferation assay; type: cell-based; settings: Homo sapiens, CCRF-CEM; Lymphoma CEM, P-gp Neg; read-out: Formula 2 compound IC50 (inhibition of growth)
Method: as §1

HT-29 = assay: Cell proliferation assay; type: cell-based; settings: Homo sapiens; Colorectal carcinoma HT-29, P-gp Neg; read-out: Formula 2 compound IC50 (inhibition of growth)
Method: as §1

HISM = assay: Cell proliferation assay; type: cell-based; settings: Homo sapiens; Smooth muscle HISM; read-out: Formula 2 compound IC50 (inhibition of growth)
Method: as §1

[2] = Blood-brain barrier penetration of loperamide, mouse hot-plate test; type: in vivo, mice
Excerpt: These increases were dose dependent with respect to loperamide.

For `CCOC/C=C/c1ccc(-c2nc(-c3ccc(NC(C)C)cc3)c(-c3ccc(NC(C)C)cc3)[nH]2)cc1` [Formula 2 compound], the “Resistance to paclitaxel treatment in vitro” value (MDA/LCC6^MDR1; FIG. 1) was “reversed”, the pEC50 (MDA/LCC6^MDR1; read-out: Formula 2 compound EC50, reversal of Doxorubicin resistance) was 7.89 and the pEC50 (MDA/LCC6^MDR1; read-out: Formula 2 compound EC50, reversal of Paclitaxel resistance) was 8.05. For the same compound, the Tumor formation (tumor-bearing mice) was “completely prevented tumor formation at several injection sites”, the “MDR reversal potency after incubation in human plasma” value ([1]; human plasma) was “retained full MDR reversal potency” and the “EC50s for reversal of resistance to all classes of P-gp substrates” value ([1]; wide variety of tumor cell types) was “low nM range”. The “In vitro anti-tumor activity of paclitaxel” value (MDA/LCC6 cells) was “did not enhance”, the pIC50 (CCD-986SK) was under 4.00 and the pIC50 (MCF-7) was 4.52. It also gave an IC50 at 72 h (Cell proliferation assay) of over 100 µM, a pIC50 (MES-SA) of 4.29 and a pIC50 (HCT-15) of 5.22. The pIC50 (CEM/VLB1000) was 4.49, the pIC50 (SKOV3) was 4.32 and the pIC50 (MDA/LCC6) was under 4.00. For the same compound, the pIC50 (SW620) was under 4.00, the pIC50 (SW480) was under 4.00 and the pIC50 (SK/VLB1000) was 4.82. It also gave a pIC50 (CEM) of 4.42, a pIC50 (HT-29) of 4.92 and a pIC50 (HISM) of under 4.00. For the same compound, the “Effect on hot-plate escape time” value ([2]; co-administration with loperamide, either 20 mg or 40 mg, dose dependent with respect to loperamide) was “significant increases” and the “Mean time to escape the hot-plate” value ([2]; in the absence of loperamide) was 20 s.
